What all share (experiment): inhibition of tumour cell growth, NCI panel, 48 h
Assay [1] deals with ACHN renal.
Assay [2] concerns COLO 205 colon.
Assay [3] relates to IGROV1 ovarian.
In assay [4] the test system is MDA-MB-231 breast.
Assay [5] concerns MOLT-4 leukemia.
The test system of assay [6] is OVCAR-3 ovarian.
Assay [7] relates to OVCAR-4 ovarian.
The subject of assay [8] is OVCAR-8 ovarian.
The test system of assay [9] is SW-620 colon.
Assay [10] deals with A498 renal.

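Growth conditions: 96-well plates. Treatment: test compound, 48 hours, 5 concentrations. Analysis: linear interpolation between bracketing concentrations; unreached endpoints set to highest concentration. GI50: concentration for 50% inhibition of growth. The concentration for full growth arrest is given as TGI.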 Where only a bound is given, the exact number is not on record here.

As to `COc1ccc(-n2sc(=O)n(Cc3ccc(COC(=O)C(C)c4ccc(CC(C)C)cc4)cc3)c2=O)cc1` (stereo not drawn), the GI50 in assay [1] was 0.996 µM; in [2], 1.1 µM; in assay [3] it was 1.4 µM; in [4], 1.86 µM; in assay [5], 1.21 µM; in assay [6], 0.821 µM. For the same compound, the GI50 is 0.92 µM in [7], 2.81 µM in assay [8] and 0.9 µM in assay [9]. The TGI in assay [1] was 2.05 µM; in assay [2], 2.6 µM; in [3] it was 4.74 µM; in [4] it was 7.11 µM; in [5], 3.89 µM; in [6] it was 1.52 µM. The values for the TGI in assay [7], in [8] and in assay [9] were 1.99 µM, 21.5 µM and 1.82 µM, respectively.

`O=C1c2cccc3cc([N+](=O)[O-])cc(c23)C(=O)N1O`: the TGI in assay [1], in assay [2], in assay [3], in assay [4], in assay [5] and in [6] was above 100 µM in each case. Also, the TGI in assay [7], in assay [8] and in [9] was above 100 µM each time.

For the compound `CN1CCN(c2ccc3nc4c(nc3c2C(F)(F)F)C(=O)c2ncccc2C4=O)CC1`, the GI50 was 1.94 µM in assay [10]; 1.45 µM in assay [2]; 1.41 µM in assay [3]; 2.54 µM in assay [4]; 2.28 µM in assay [5]; 0.379 µM in assay [6]. The GI50 in assay [7] is 1.07 µM; in assay [8] it was 1.97 µM; in assay [9], 1.42 µM. Moreover, the TGI came to 3.63 µM in [10]; 3.29 µM in [2]; 3.07 µM in assay [3]; 7 µM in [4]; 5.52 µM in [5]; 1.41 µM in [6]. In addition, the TGI in [7] came to 2.26 µM; in assay [8], 8.96 µM; in [9], 3.52 µM.

As to `CCOC(=O)C1CC/C(=C(/C#N)C(=O)OC)N1` (stereo not drawn), the TGI in assay [10], in assay [1], in assay [2], in assay [3], in assay [5] and in assay [6] was above 100 µM throughout. Also, the TGI in [7], in assay [8] and in [9] was above 100 µM each time.

As for `O=[N+]([O-])c1cc(/C=N/NS(=O)(=O)c2ccc(F)cc2)c(O)c([N+](=O)[O-])c1`, the TGI in assay [10] is 78.1 µM; in assay [1] it was above 100 µM; in assay [2], 34.5 µM; in assay [3], above 100 µM; in assay [5], 88.6 µM; in assay [6] it was 68 µM. The results for the TGI in assay [7], in [8] and in [9] were above 100 µM, 57.4 µM and above 100 µM, respectively.

On to `Cc1cc2c(cc1C)[n+]([O-])c(-c1c(Cl)cccc1Cl)c(N)[n+]2[O-]`, for which the TGI in assay [10] was 79.9 µM; in [1] it was above 100 µM; in assay [2] it was 38.4 µM; in assay [3], above 100 µM; in assay [5], above 100 µM; in assay [6], 99.5 µM. Moreover, the TGI in [7], in assay [8] and in assay [9] was above 100 µM each time.

`Nn1c(N=Nc2c(O)[nH]c3ccccc23)n[nH]c1=S`: the TGI in assay [10], in [1], in assay [2], in assay [3], in assay [5] and in [6] was above 100 µM in each case. Also, the TGI in assay [7], in assay [8] and in assay [9] was above 100 µM each time.

Turning to `CC(=O)/C=C/C1=C(c2ccsc2)c2ccccc2CC1`, the GI50 in assay [10] was 24.7 µM; in assay [1] it was 25.9 µM; in assay [2], 36.5 µM; in assay [4], 19.3 µM; in assay [5] it was 17.6 µM; in assay [6], 19.4 µM. Also, the figures for the GI50 in [7], in assay [8] and in assay [9] were above 100 µM, 18.2 µM and 33.7 µM, respectively. Moreover, the TGI in assay [10] was 69.7 µM; in assay [1], 61.1 µM; in [2], above 100 µM; in assay [4], 49.4 µM; in assay [5], 37.1 µM; in [6] it was 39.7 µM. Further, the TGI in assay [7] was above 100 µM; in [8], 39.3 µM; in assay [9], above 100 µM.

Regarding `N#C/C(=C\c1ccc(O)cc1O)C(N)=O`, the TGI is above 100 µM in [10]; above 100 µM in assay [1]; 26.5 µM in assay [2]; above 100 µM in assay [3]; above 100 µM in [5]; above 100 µM in [6]. For the same compound, the TGI in assay [7], in [8] and in assay [9] was above 100 µM each time.

Take `COC(=O)/C(=N\O)C(C(=O)C=C(C)C)C(=O)C(=O)Nc1ccccc1C` (stereo not drawn): the TGI in assay [10], in assay [1], in [2], in assay [3], in assay [5] and in assay [6] was above 100 µM each time. In addition, the TGI in [7], in [8] and in [9] was above 100 µM each time.

In the case of `Brc1ccc(Br)nn1`, the GI50 in assay [10] is 3.42 µM; in assay [1] it was 1.8 µM; in assay [2], 2.12 µM; in assay [3], 2 µM; in assay [4] it was 1.83 µM; in [5], 1.69 µM. For the same compound, the GI50 in [7] was 1.29 µM; in [8] it was 2.4 µM; in assay [9], 1.66 µM. In addition, the TGI in assay [10] was 17.5 µM; in assay [1], 3.26 µM; in assay [2], 3.77 µM; in assay [3], 4.92 µM; in assay [4], 4.23 µM; in [5], 5.48 µM. Besides, the TGI in assay [7] stood at 2.77 µM; in assay [8] it was 9.26 µM; in assay [9], 6.54 µM.

Consider `COC(=O)C(=O)C1CCCCC(C2=NC3NN=C(N)N3C2=O)C1=O` (stereo not drawn), for which the TGI in [10], in assay [1], in [2], in assay [3], in assay [5] and in [6] was above 100 µM in each case. The TGI in [7], in [8] and in assay [9] was above 100 µM throughout.

As for `Cc1sc(/N=C2/NC(=O)CS2)nc1-c1nc(/N=C2/NC(=O)CS2)sc1C`, the GI50 in assay [10] was 47.1 µM; in assay [1], above 50 µM; in [2] it was above 50 µM; in assay [3], above 50 µM; in assay [4] it was above 50 µM; in assay [5], 19.9 µM. Moreover, the GI50 in assay [6], in assay [8] and in assay [9] was above 50 µM throughout. The TGI in assay [10], in assay [1], in assay [2], in assay [3], in [4] and in assay [5] was above 50 µM in each case. Moreover, the TGI in [6], in assay [8] and in assay [9] was above 50 µM each time.

Turning to `COC(=O)C1=Cc2c(OC)cc(OC)c(OC)c2[C@H](c2cc(OC)c(OC)cc2OC)C1C(=O)OC` (stereo partly drawn), the TGI in [10], in [1], in assay [2], in assay [3], in assay [5] and in [6] was above 100 µM throughout. The TGI in assay [7], in assay [8] and in assay [9] was above 100 µM throughout.

With `Oc1[nH]c2ccc(Cl)cc2c1/C=c1/ccc2c(c1)N=C(c1cc(F)cc(F)c1)N=2`, the GI50 is 7.42 µM in assay [1]; 4.28 µM in assay [2]; 6.21 µM in [3]; 3.85 µM in assay [4]; 3.32 µM in assay [5]; 2.26 µM in assay [6]. Moreover, the GI50 in assay [7] is 2.77 µM. Also, the TGI in assay [1] was above 100 µM; in [2], above 100 µM; in assay [3] it was above 100 µM; in [4] it was above 100 µM; in assay [5] it was above 100 µM; in [6], 5.73 µM. This compound returned a TGI in [7] above 100 µM.

Turning to `CON`, the GI50 in [1], in assay [2], in [3], in [4], in [5] and in assay [6] was above 100 µM in each case. Also, the GI50 in assay [7], in [8] and in assay [9] was above 100 µM in each case. Further, the TGI in [1], in assay [2], in assay [3], in [4], in assay [5] and in assay [6] was above 100 µM each time. The TGI in [7], in [8] and in [9] was above 100 µM in each case.

Consider `CC1(C)CC2CC(C)(CN2c2ncnc3ccc(Br)cc23)C1` (stereo not drawn), for which the GI50 is 14.1 µM in [1]; 15.4 µM in assay [2]; 10.9 µM in assay [3]; 2 µM in [4]; 0.134 µM in assay [5]; 2.72 µM in assay [6]. For the same compound, the GI50 in [7] is 14.1 µM; in assay [8] it was 12.3 µM; in assay [9] it was 15 µM. In addition, the TGI was determined as 27 µM in assay [1]; 29.8 µM in assay [2]; 22.8 µM in [3]; 12.4 µM in [4]; 11.2 µM in assay [5]; 13.1 µM in assay [6]. The TGI was 27.1 µM in assay [7], 25 µM in assay [8] and 30.7 µM in [9].

`C=C1CC(C/C=C(\C)CC2CC(=C)C(=O)O2)OC1=O` (stereo not drawn): the TGI in assay [10], in assay [1], in [2], in assay [3], in [5] and in [6] was above 100 µM throughout. Moreover, the TGI in assay [7], in assay [8] and in [9] was above 100 µM each time.

On to `COc1ccc(-c2cncn2-c2cc(OC)c(OC)c(OC)c2)cc1F`, for which the GI50 was below 0.0495 µM in [10]; below 0.0122 µM in assay [2]; below 0.0212 µM in [3]; 0.103 µM in [4]; below 0.0283 µM in [5]; 0.0219 µM in assay [6]. Further, the GI50 is 1.19 µM in assay [7], below 0.0488 µM in assay [8] and below 0.0177 µM in assay [9]. Also, the TGI in assay [10] was 25 µM; in [3], 19 µM; in [4], above 100 µM; in assay [5] it was above 100 µM; in assay [6], 22.2 µM; in [7] it was above 100 µM. The TGI in assay [8] and in [9] was above 100 µM each time.

Take `CC[O-].CC[O-].O=C([CH-]C(=O)c1ccccc1)c1ccccc1.O=C([CH-]C(=O)c1ccccc1)c1ccccc1.[Ti+4]`: the GI50 in assay [10] was above 100 µM; in [1], above 100 µM; in [2], above 100 µM; in assay [3] it was above 100 µM; in assay [5], 46.5 µM; in [6] it was above 100 µM. Moreover, the results for the GI50 in assay [7], in [8] and in [9] were above 100 µM, 79.4 µM and above 100 µM, respectively. Moreover, the TGI in assay [10], in assay [1], in [2], in [3], in [5] and in assay [6] was above 100 µM throughout. The TGI in assay [7], in [8] and in assay [9] was above 100 µM in each case.

On to `Cc1cccc(N=C2NC(=O)C(CC(=O)Nc3ccc(Cl)cc3C)S2)c1` (stereo not drawn), for which the TGI in [10], in assay [1], in [2], in assay [3], in assay [5] and in [6] was above 100 µM throughout. Besides, the TGI in assay [7], in [8] and in [9] was above 100 µM in each case.

As for `Cc1cc(=O)[nH]c(CNC(=O)Cc2ccccc2)n1`, the TGI in [10], in assay [1], in assay [2], in assay [3], in assay [5] and in [6] was above 100 µM each time. Moreover, the TGI in assay [7], in assay [8] and in assay [9] was above 100 µM each time.
